# Measured values as given in PubChem BioAssay (NCI).
#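 Test compounds were applied to cells in 96-well plates for 48 hours at 5 doses. TGI: total growth inhibition.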
# How the values were obtained:
# Experiment in all cases: DTP human tumour cell line panel, 48 h
# NCI-H226 lung = tested on: NCI-H226 lung
# TK-10 renal = tested on: TK-10 renal
# MOLT-4 leukemia = tested on: MOLT-4 leukemia
# HS 578T breast = tested on: HS 578T breast
# NCI-H23 lung = tested on: NCI-H23 lung
# OVCAR-8 ovarian = tested on: OVCAR-8 ovarian
# DU-145 prostate = tested on: DU-145 prostate
# 786-0 renal = tested on: 786-0 renal
# UACC-62 melanoma = tested on: UACC-62 melanoma
# NCI-H460 lung = tested on: NCI-H460 lung
# OVCAR-3 ovarian = tested on: OVCAR-3 ovarian
# SNB-75 CNS = tested on: SNB-75 CNS
# KM12 colon = tested on: KM12 colon
# U251 CNS = tested on: U251 CNS
# MALME-3M melanoma = tested on: MALME-3M melanoma
# MCF7 breast = tested on: MCF7 breast
# NCI-H522 lung = tested on: NCI-H522 lung
# MDA-MB-435 = tested on: MDA-MB-435
# SNB-19 CNS = tested on: SNB-19 CNS
# MDA-MB-231 breast = tested on: MDA-MB-231 breast
# SK-MEL-5 melanoma = tested on: SK-MEL-5 melanoma
# HCT-15 colon = tested on: HCT-15 colon
# RPMI-8226 leukemia = tested on: RPMI-8226 leukemia
# SW-620 colon = tested on: SW-620 colon
# OVCAR-4 ovarian = tested on: OVCAR-4 ovarian
# SK-OV-3 ovarian = tested on: SK-OV-3 ovarian
# OVCAR-5 ovarian = tested on: OVCAR-5 ovarian
# EKVX NSCLC = tested on: EKVX NSCLC
# RXF 393 renal = tested on: RXF 393 renal
# NCI/ADR-RES ovarian = tested on: NCI/ADR-RES ovarian
# BT-549 breast = tested on: BT-549 breast
# HOP-62 NSCLC = tested on: HOP-62 NSCLC
# SF-539 CNS = tested on: SF-539 CNS
# UACC-257 melanoma = tested on: UACC-257 melanoma
# M14 melanoma = tested on: M14 melanoma
# A549 NSCLC = tested on: A549 NSCLC
# HT29 colon = tested on: HT29 colon
# SK-MEL-2 melanoma = tested on: SK-MEL-2 melanoma
# UO-31 renal = tested on: UO-31 renal
# SF-268 CNS = tested on: SF-268 CNS
# LOX IMVI melanoma = tested on: LOX IMVI melanoma
# K-562 leukemia = tested on: K-562 leukemia
# HOP-92 NSCLC = tested on: HOP-92 NSCLC
# HCC-2998 colon = tested on: HCC-2998 colon
# HCT-116 colon = tested on: HCT-116 colon
# SK-MEL-28 melanoma = tested on: SK-MEL-28 melanoma
# A498 renal = tested on: A498 renal
# SF-295 CNS = tested on: SF-295 CNS
# IGROV1 ovarian = tested on: IGROV1 ovarian
# SR leukemia = tested on: SR leukemia
# T-47D breast = tested on: T-47D breast
# SN12C renal = tested on: SN12C renal
# COLO 205 colon = tested on: COLO 205 colon
# PC-3 prostate = tested on: PC-3 prostate
# HL-60(TB) leukemia = tested on: HL-60(TB) leukemia
# CCRF-CEM leukemia = tested on: CCRF-CEM leukemia
# ACHN renal = tested on: ACHN renal
# CAKI-1 renal = tested on: CAKI-1 renal
structure (smiles),measurement,setting,value
CCCCCCCCCc1cc(-c2ccc(C=O)s2)sc1-c1ccc(C=O)s1,TGI,NCI-H226 lung,9.94 µM
same,TGI,TK-10 renal,34.7 µM
same,TGI,MOLT-4 leukemia,10.5 µM
same,TGI,HS 578T breast,46.5 µM
same,TGI,NCI-H23 lung,82.5 µM
same,TGI,OVCAR-8 ovarian,> 59 µM
same,TGI,DU-145 prostate,> 100 µM
same,TGI,786-0 renal,> 85.2 µM
same,TGI,UACC-62 melanoma,23.7 µM
same,TGI,NCI-H460 lung,> 83.2 µM
same,TGI,OVCAR-3 ovarian,38.2 µM
same,TGI,SNB-75 CNS,> 91.1 µM
same,TGI,KM12 colon,> 100 µM
same,TGI,U251 CNS,29 µM
same,TGI,MALME-3M melanoma,> 100 µM
same,TGI,MCF7 breast,> 54.3 µM
same,TGI,NCI-H522 lung,45.6 µM
same,TGI,MDA-MB-435,> 100 µM
same,TGI,SNB-19 CNS,> 87.1 µM
same,TGI,MDA-MB-231 breast,> 77.9 µM
same,TGI,SK-MEL-5 melanoma,34.6 µM
same,TGI,HCT-15 colon,> 72.7 µM
same,TGI,RPMI-8226 leukemia,51.2 µM
same,TGI,SW-620 colon,> 100 µM
same,TGI,OVCAR-4 ovarian,> 80.4 µM
same,TGI,SK-OV-3 ovarian,67.2 µM
same,TGI,OVCAR-5 ovarian,> 91.6 µM
same,TGI,EKVX NSCLC,> 100 µM
same,TGI,RXF 393 renal,35.4 µM
same,TGI,NCI/ADR-RES ovarian,> 78.6 µM
same,TGI,BT-549 breast,> 93.6 µM
same,TGI,HOP-62 NSCLC,74.8 µM
same,TGI,SF-539 CNS,> 84.3 µM
same,TGI,UACC-257 melanoma,30.8 µM
same,TGI,M14 melanoma,25 µM
same,TGI,A549 NSCLC,> 100 µM
same,TGI,HT29 colon,> 100 µM
same,TGI,SK-MEL-2 melanoma,64.4 µM
same,TGI,UO-31 renal,63.3 µM
same,TGI,SF-268 CNS,> 100 µM
same,TGI,LOX IMVI melanoma,37 µM
same,TGI,K-562 leukemia,> 38 µM
same,TGI,HOP-92 NSCLC,75.8 µM
same,TGI,HCC-2998 colon,> 78.7 µM
same,TGI,HCT-116 colon,49 µM
same,TGI,SK-MEL-28 melanoma,> 100 µM
same,TGI,A498 renal,3.12 µM
same,TGI,SF-295 CNS,> 100 µM
same,TGI,IGROV1 ovarian,56.3 µM
same,TGI,SR leukemia,26.9 µM
same,TGI,T-47D breast,> 85.6 µM
same,TGI,SN12C renal,> 84 µM
same,TGI,COLO 205 colon,> 31.6 µM
same,TGI,PC-3 prostate,> 100 µM
same,TGI,HL-60(TB) leukemia,51.1 µM
same,TGI,CCRF-CEM leukemia,8.51 µM
same,TGI,ACHN renal,> 100 µM
CC(OC(C)(C)C)[C@H](NC(=O)OC(C)(C)C)C(=O)O (stereo partly specified),TGI,NCI-H226 lung,> 100 µM
same,TGI,TK-10 renal,> 100 µM
same,TGI,MOLT-4 leukemia,> 100 µM
same,TGI,HS 578T breast,> 100 µM
same,TGI,NCI-H23 lung,> 100 µM
same,TGI,OVCAR-8 ovarian,> 100 µM
same,TGI,DU-145 prostate,> 100 µM
same,TGI,786-0 renal,> 100 µM
same,TGI,UACC-62 melanoma,> 100 µM
same,TGI,NCI-H460 lung,> 100 µM
same,TGI,OVCAR-3 ovarian,> 100 µM
same,TGI,KM12 colon,> 100 µM
same,TGI,U251 CNS,> 100 µM
same,TGI,MALME-3M melanoma,> 100 µM
same,TGI,CAKI-1 renal,> 100 µM
same,TGI,MCF7 breast,> 100 µM
same,TGI,NCI-H522 lung,> 100 µM
same,TGI,MDA-MB-435,> 100 µM
same,TGI,SNB-19 CNS,> 100 µM
same,TGI,MDA-MB-231 breast,> 100 µM
same,TGI,SK-MEL-5 melanoma,> 100 µM
same,TGI,HCT-15 colon,> 100 µM
same,TGI,RPMI-8226 leukemia,> 100 µM
same,TGI,SW-620 colon,> 100 µM
same,TGI,OVCAR-4 ovarian,> 100 µM
same,TGI,SK-OV-3 ovarian,> 100 µM
same,TGI,OVCAR-5 ovarian,> 100 µM
same,TGI,EKVX NSCLC,> 100 µM
same,TGI,NCI/ADR-RES ovarian,> 100 µM
same,TGI,BT-549 breast,> 100 µM
same,TGI,HOP-62 NSCLC,> 100 µM
same,TGI,SF-539 CNS,> 100 µM
same,TGI,UACC-257 melanoma,> 100 µM
same,TGI,M14 melanoma,> 100 µM
same,TGI,A549 NSCLC,> 100 µM
same,TGI,HT29 colon,> 100 µM
same,TGI,UO-31 renal,> 100 µM
same,TGI,SF-268 CNS,> 100 µM
same,TGI,LOX IMVI melanoma,> 100 µM
same,TGI,K-562 leukemia,> 100 µM
same,TGI,HOP-92 NSCLC,> 100 µM
same,TGI,HCC-2998 colon,> 100 µM
same,TGI,HCT-116 colon,> 100 µM
same,TGI,A498 renal,> 100 µM
same,TGI,SF-295 CNS,> 100 µM
same,TGI,IGROV1 ovarian,> 100 µM
same,TGI,SR leukemia,> 100 µM
same,TGI,T-47D breast,> 100 µM
same,TGI,SN12C renal,> 100 µM
same,TGI,COLO 205 colon,> 100 µM
same,TGI,PC-3 prostate,> 100 µM
same,TGI,HL-60(TB) leukemia,> 100 µM
same,TGI,CCRF-CEM leukemia,> 100 µM
same,TGI,ACHN renal,> 100 µM
